Measured values from patent publication US12661373B2, “Electrochemically activated salt solution” (AZAD Pharma AG, priority 2018, dated 2026).

What was measured:
Format in all cases: cell-based
Conditions in all cases: ACV 100 μmol/l, MOI 0.01, titer 24 hpi
[1] = test system: HSV-1 strain Kupka; test: In vitro antiviral activity, treatment of Vero cells, plaque assay
Description: (§1) • A. Vero cells were seeded in 24-well plates and treated with dilutions of the ECAS 2 Dil.1:1 and Dil.1:2, either: • I. 24 hours before the infection; • II. 2 hours before the infection; • III. during the infection; • IV. 2 hours post infection; or • V. 6 hours post infection.
(§2) The cells were infected with the HSV-1 strains Kupka and ANGpath at a multiplicity of infection (MOI) of 0.01. The cells were collected 24 hours post infection (hpi) and the virus titer was determined by plaque assay. Briefly, the samples were serially diluted and plated onto one-day Vero cell-monolayers in 24- or 6-well tissue plates in duplicates. Afterwards, the cells were overlaid with 1% methylcellulose in normal growth media. 5 days post infection, the cells were fixed and stained with 2% crystal violet in 20% ethanol, and the individual plaques were counted to determine the virus titer in each sample. Samples without treatment (Mock, negative control) and samples treated with ACV (Acyclovir, 100 μmol/l, reference control) were handled in the same manner. The test was performed in two independent experiments, where each of the samples was tested in parallel wells. • B. The HSV-1 strains Kupka and ANGpath, were incubated at a MOI of 0.01 with dilutions of the ECAS 2 either Dil.1:1 or Dil.1:2, in a final volume of 100 μl for either: • I. 12 hours; • II. 8 hours; • III. 6 hours; or • IV. 2 hours.

[2] = test system: HSV-1 strain ANGpath; test: as above
Description: as §1, §2

[3] = test system: HSV-1 strain Kupka; test: In vitro antiviral activity, pre-incubation of virus before infection of Vero cells, plaque assay
Description: as §2
(§3) Then cells, which had been seeded in 24-well plates 24 hours before the infection, were infected with the above mentioned pre-incubated viruses. 24 hpi the cells were collected and the virus titer was determined by a plaque assay, as described above. Samples without treatment (Mock, negative control) and samples treated with Acyclovir (100 μmol/l as reference control) were handled in the same manner. The test was performed in two independent experiments, where each of the samples was tested in parallel wells.

[4] = test system: HSV-1 strain ANGpath; test: as above
Description: as §2, §3

[5] = cells treated 2 h before infection
[6] = cells treated 24 h before infection
[7] = virus incubated 2 h before infection
[8] = virus incubated 6 h before infection
[9] = virus incubated 8 h before infection
[10] = virus incubated 12 h before infection

## Nc1nc2c(ncn2COCCO)c(=O)[nH]1 [ACV, Acyclovir]
[1]; cells treated 2 hpi
  Reduction in viral titer: 4.52 log10
[1]; cells treated 6 hpi
  Reduction in viral titer: 3.43 log10
[1]; [5]
  Reduction in viral titer: 1.96 log10
[1]; [6]
  Reduction in viral titer: 1.96 log10
[1]; cells treated during infection
  Reduction in viral titer: 3.69 log10
[2]; cells treated 2 hpi
  Reduction in viral titer: 2.81 log10
[2]; cells treated 6 hpi
  Reduction in viral titer: 2.38 log10
[2]; [5]
  Reduction in viral titer: 0.61 log10
[2]; [6]
  Reduction in viral titer: 0.54 log10
[2]; cells treated during infection
  Reduction in viral titer: 2.45 log10
[3]; [7]
  Reduction in viral titer: 4.62 log10
[3]; [8]
  Reduction in viral titer: 3.55 log10
[3]; [9]
  Reduction in viral titer: 5.17 log10
[3]; [10]
  Reduction in viral titer: 3.15 log10
[4]; [7]
  Reduction in viral titer: 2.85 log10
[4]; [8]
  Reduction in viral titer: 2.59 log10
[4]; [9]
  Reduction in viral titer: 2.97 log10
[4]; [10]
  Reduction in viral titer: 2.56 log10
